According to ChEMBL document CHEMBL1201862, “PubChem BioAssay data set” (2004):
Calls of active or inactive are those of the source.

Experiments:
INS1 = assay: INS-1E survival protection against cytokine death – cell-based, luminescence, retest, dose response (AID 449756); format: functional; conditions: Rattus norvegicus;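 note: cell death triggered by IL-1 beta plus TNF-alpha plus IFN-gamma mixture; protective hits raise ATP signal compared with cytokine alone wells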
Cytochrome P450 2C19 = Cytochrome P450 2C19 (Homo sapiens, UniProt P33261); assay: Cytochrome panel assay with activity outcomes. Panel member name: p450-cyp2c19 Compounds with AC50 equal or less than 10 uM are considered active; format: functional
Cytochrome P450 2C19, sequence (P33261 whole entry): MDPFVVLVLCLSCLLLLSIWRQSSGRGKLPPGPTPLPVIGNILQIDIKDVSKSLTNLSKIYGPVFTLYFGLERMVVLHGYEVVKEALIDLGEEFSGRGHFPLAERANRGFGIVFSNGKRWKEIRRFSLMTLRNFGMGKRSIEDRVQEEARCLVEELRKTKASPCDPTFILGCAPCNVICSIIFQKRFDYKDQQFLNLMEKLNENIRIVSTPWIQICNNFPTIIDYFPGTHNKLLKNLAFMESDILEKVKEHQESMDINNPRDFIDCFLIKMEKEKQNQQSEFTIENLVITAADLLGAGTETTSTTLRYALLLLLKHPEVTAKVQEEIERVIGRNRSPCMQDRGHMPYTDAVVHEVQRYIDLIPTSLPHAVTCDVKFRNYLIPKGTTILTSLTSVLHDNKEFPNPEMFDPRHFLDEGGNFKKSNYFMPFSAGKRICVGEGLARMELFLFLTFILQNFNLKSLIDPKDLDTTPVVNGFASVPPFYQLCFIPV

[1] = Luminescence Cell-Based Dose Confirmation HTS to Identify Activators of 5'UTR Stem-Loop Driven Alpha-Synuclein mRNA Translation in H4 Neuroglioblastoma Cells. [Related pubchem assays: 1829 (Project Summary), 1814 (Primary HTS)]; format: functional
[2] = Luminescence Cell-Based Dose Response HTS to Identify Activators of Luciferase Translation or Activity in H4 […] Cells. [Related pubchem assays: 1829 (Project Summary), 1814 (Primary HTS)]; format: functional
H4 = assay: Luminescence Cell-Based Dose Response HTS to Identify Activators of 5'UTR Stem-Loop Driven Prion Protein mRNA Translation in H4 Neuroglioblastoma Cells. [Related pubchem assays: 1829 (Project Summary), 1814 (Primary HTS)]; format: functional; conditions: Homo sapiens
Cytochrome P450 3A4 = Cytochrome P450 3A4 (Homo sapiens, UniProt P08684);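 note: CYP3A4 tested as one member of a cytochrome P450 panel screen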
Cytochrome P450 3A4, sequence (P08684 whole entry): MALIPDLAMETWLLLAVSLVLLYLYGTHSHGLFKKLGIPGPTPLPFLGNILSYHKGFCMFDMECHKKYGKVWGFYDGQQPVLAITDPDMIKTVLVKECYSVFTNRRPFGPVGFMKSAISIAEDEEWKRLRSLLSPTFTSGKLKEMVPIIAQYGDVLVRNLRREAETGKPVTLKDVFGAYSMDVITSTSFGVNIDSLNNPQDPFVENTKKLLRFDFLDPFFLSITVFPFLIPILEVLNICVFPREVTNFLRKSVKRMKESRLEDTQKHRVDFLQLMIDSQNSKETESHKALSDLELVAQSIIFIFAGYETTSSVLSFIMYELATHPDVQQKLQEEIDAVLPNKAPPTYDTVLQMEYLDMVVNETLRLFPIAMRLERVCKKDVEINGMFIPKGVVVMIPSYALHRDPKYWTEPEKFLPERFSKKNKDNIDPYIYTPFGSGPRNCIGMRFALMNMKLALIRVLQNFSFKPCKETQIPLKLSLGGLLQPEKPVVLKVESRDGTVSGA

Cytochrome P450 2C9 = Cytochrome P450 2C9 (Homo sapiens, UniProt P11712)
Cytochrome P450 2C9, sequence (P11712 whole entry): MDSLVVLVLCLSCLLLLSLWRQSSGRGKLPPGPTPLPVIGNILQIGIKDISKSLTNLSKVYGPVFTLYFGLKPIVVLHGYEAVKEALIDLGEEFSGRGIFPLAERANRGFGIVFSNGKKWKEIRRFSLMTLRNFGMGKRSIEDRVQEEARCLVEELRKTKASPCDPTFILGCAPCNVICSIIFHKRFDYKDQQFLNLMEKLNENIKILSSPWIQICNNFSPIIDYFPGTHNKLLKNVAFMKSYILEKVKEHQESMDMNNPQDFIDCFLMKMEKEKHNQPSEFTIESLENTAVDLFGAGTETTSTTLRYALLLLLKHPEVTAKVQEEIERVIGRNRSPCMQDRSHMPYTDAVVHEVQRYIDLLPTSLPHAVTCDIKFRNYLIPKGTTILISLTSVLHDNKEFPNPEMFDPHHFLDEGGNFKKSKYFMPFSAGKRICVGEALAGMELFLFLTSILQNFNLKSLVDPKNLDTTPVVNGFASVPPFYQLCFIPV

[3] = target: T1, Heat shock factor protein 1 (Mus musculus, UniProt P38532); assay: decrease of HSF1-responsive luciferase luminescence – cell-based, NIH3T3, dose retest, confirmation (AID 2382); format: functional;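 note: NIH3T3 fibroblasts with HSF1-driven luciferase reporter stressed by proteasome inhibitor MG132; luminescence from HSF1-driven luciferase expression after 8 hours of MG132 stress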
T1 sequence (P38532 whole entry): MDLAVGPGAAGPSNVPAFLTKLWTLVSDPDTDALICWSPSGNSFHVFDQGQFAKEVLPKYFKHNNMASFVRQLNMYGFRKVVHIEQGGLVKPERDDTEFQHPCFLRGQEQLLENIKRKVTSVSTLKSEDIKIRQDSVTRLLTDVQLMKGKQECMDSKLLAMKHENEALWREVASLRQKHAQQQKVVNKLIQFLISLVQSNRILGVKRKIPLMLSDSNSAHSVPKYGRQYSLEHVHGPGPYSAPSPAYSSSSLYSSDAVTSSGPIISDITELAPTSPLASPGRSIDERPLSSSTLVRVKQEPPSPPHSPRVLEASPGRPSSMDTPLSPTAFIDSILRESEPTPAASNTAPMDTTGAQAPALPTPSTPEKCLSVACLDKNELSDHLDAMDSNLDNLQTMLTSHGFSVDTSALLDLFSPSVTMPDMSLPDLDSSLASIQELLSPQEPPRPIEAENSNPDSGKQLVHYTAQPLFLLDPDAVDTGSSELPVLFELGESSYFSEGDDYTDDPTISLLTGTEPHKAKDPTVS

Cytochrome P450 1A2 = target: T2, Cytochrome P450 1A2 (Homo sapiens, UniProt P05177);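 note: PubChem cytochrome P450 panel assay, CYP1A2 panel member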
T2 sequence (P05177 whole entry): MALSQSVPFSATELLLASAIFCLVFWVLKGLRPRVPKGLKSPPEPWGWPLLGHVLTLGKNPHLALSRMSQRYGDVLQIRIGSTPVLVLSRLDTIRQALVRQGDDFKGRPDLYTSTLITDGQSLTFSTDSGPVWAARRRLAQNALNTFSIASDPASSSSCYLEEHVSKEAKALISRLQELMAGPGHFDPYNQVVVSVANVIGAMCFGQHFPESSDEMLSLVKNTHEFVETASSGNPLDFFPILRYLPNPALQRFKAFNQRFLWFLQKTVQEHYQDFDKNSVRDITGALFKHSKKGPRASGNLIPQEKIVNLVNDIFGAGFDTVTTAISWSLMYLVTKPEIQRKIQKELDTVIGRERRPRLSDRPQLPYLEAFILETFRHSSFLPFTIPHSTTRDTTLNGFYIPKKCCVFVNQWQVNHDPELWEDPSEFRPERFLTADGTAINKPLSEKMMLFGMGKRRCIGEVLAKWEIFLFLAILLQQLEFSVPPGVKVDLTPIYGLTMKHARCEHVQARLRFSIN

Cytochrome P450 2D6 = Cytochrome P450 2D6 (Homo sapiens, UniProt P10635);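 note: CYP2D6 member of a cytochrome P450 panel assay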
Cytochrome P450 2D6, sequence (P10635 whole entry): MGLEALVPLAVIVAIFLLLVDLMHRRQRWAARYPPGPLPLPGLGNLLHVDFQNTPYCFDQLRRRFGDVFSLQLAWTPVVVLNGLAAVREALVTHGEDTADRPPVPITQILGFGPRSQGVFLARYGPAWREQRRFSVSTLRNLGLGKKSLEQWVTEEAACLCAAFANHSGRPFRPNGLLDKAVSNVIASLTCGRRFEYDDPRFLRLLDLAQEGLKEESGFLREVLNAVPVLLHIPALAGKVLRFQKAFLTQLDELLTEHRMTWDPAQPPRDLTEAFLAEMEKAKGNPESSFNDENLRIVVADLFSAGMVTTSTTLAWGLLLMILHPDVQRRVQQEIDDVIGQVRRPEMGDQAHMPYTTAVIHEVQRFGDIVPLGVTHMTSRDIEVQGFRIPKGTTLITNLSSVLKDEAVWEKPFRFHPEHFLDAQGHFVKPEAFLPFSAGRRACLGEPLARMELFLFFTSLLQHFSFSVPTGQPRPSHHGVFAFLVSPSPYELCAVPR

[4] = tested on: Streptococcus sp. 'group A'; assay: Streptococcus pyogenes SK(-)GAS viability under kanamycin – luminescence, BacTiterGlo, confirmation, counter-screen for streptokinase expression inhibitor project, dose response (AID 1900); format: functional, organism-based
Streptokinase A = target: T3, Streptokinase A (Streptococcus pyogenes serotype M1, UniProt P10520); assay: viability-normalized secreted streptokinase activity reduction – plasminogen activation absorbance, OD405, dose response (AID 1914); format: functional, Streptococcus pyogenes M1 GAS;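 note: secreted streptokinase activity via plasminogen activation per viability signal from cell pellet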
T3 sequence (P10520 whole entry): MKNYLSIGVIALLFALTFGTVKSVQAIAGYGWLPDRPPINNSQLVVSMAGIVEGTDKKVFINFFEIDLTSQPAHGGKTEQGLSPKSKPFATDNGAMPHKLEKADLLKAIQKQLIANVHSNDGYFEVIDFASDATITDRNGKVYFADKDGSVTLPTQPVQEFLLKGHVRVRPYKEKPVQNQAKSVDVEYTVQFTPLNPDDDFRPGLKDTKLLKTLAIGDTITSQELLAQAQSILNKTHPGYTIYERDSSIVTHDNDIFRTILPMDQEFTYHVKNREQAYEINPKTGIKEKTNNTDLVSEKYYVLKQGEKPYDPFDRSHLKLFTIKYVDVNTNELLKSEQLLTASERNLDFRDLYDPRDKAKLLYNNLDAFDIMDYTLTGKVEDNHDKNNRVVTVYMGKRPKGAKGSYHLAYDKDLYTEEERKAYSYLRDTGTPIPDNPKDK

Streptococcus = assay: GAS UMAA2166 growth inhibition – luminescence, BacTiterGlo, counter-screen for streptokinase expression inhibitor project, dose response (AID 1915); format: functional, organism-based;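 note: potency for reduction of bacterial viability or growth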
[5] = Trypanosoma cruzi growth suppression in host cells – NIH3T3 host cells, beta-gal luminescence, confirmation (AID 2044); format: functional, cell-based;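 note: intracellular parasites grown in NIH/3T3 mouse fibroblasts as host cells; luminescent beta-galactosidase reporter signal from transgenic T. cruzi replicating inside host cells; inhibitors lower the luminescence signal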
[6] = NIH3T3 cell viability loss – ATP luminescence, mouse fibroblasts, counter-screen, dose response (AID 2010); format: functional, cell-based;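 note: cells exposed to compound for about 90 hours before reading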

SMILES | AC50 (Cytochrome P450 2C19; read-out: AC50) | EC50 [1] | EC50 [2] | EC50 (H4) | also measured
CN1/C(=C\C(=S)NC(=O)c2ccc([N+](=O)[O-])cc2)C(C)(C)c2ccccc21 | – | – | – | – | AC50 (INS1): 22.2 µM (active)
COc1ccc(N2CC(C(=O)OCC(=O)c3cccc(OC)c3)CC2=O)cc1 (stereo unspecified) | 8.91 µM (inconclusive) | – | – | – | –
O=C(CCS(=O)(=O)c1cccs1)NC1CCCCCC1 | – | 13.5 µM (active) | 29.1 µM (active) | 16 µM (active) | –
CCSc1ccc2c(c1)N(CCCN1CCN(C)CC1)c1ccccc1S2 | 3.16 µM (inconclusive) | – | – | – | AC50 (Cytochrome P450 3A4): 10 µM (inconclusive)
Cc1ncc(CSC(=N)N)n1Cc1ccccc1 | 7.94 µM (inconclusive) | – | – | – | –
CCOC(=O)Nc1nc(-c2ccccc2)c(C)s1 | 3.98 µM (inconclusive) | – | – | – | AC50 (Cytochrome P450 2C9): 7.94 µM (inconclusive)
CC1=NN(C(N)=S)C(=O)C1N=Nc1ccc(Cl)cc1Cl (stereo unspecified) | – | 1.09 µM (active) | > 120 µM (not active) | > 120 µM (not active) | –
COc1ccc(C(C)N=C(S)NC2CCCCC2)cc1OC (stereo unspecified) | – | – | – | – | EC50 [3]: > 195 µM (not active)
COc1[nH]nc2nncnc12 | 15.8 µM (inconclusive) | – | – | – | AC50 (Cytochrome P450 1A2): 6.31 µM (inconclusive)
CC1(C)CC(=O)C2=C(C1)c1c(ccc3ccccc13)NC2c1ccco1 (stereo unspecified) | – | 15.7 µM (active) | 27.4 µM (active) | > 120 µM (not active) | –
CCC1C(=O)n2nc(-c3ccccc3)cc2N=C1C (stereo unspecified) | – | 25.7 µM (active) | 6.09 µM (active) | – | –
CC(=O)c1cc(C)ccc1OC(=O)CCN1C(=O)C2C3c4ccccc4C(c4ccccc43)C2C1=O (stereo unspecified) | 10 µM (inconclusive) | – | – | – | AC50 (Cytochrome P450 3A4): 31.6 µM (inconclusive)
Cc1cc(O)[nH]c2nnc(-c3ccccc3)c1-2 | – | 8.88 µM (active) | 10 µM (active) | 15.1 µM (active) | –
O=C(NC1CCCCC1)C(c1ccco1)N(C(=O)c1csnn1)c1ccc(Cl)cc1 (stereo unspecified) | – | – | – | – | EC50 [3]: > 195 µM (not active)
COc1cc2c(cc1OC)/C(=C/C(=O)N1CCOCC1)NC(C)(C)C2 | 22.4 µM (inconclusive) | – | – | – | AC50 (Cytochrome P450 1A2): 15.8 µM (inconclusive); AC50 (Cytochrome P450 2C9): 3.98 µM (inconclusive)
COc1ccccc1CNc1ccnc(-c2ccc(C(=O)N(C)C)cc2)n1 | 39.8 µM (inconclusive) | – | – | – | AC50 (Cytochrome P450 2D6): 39.8 µM (inconclusive)
CCCC(=O)Nc1c(C)n[nH]c1C | 3.98 µM (inconclusive) | – | – | – | –
Cc1ccc(Sc2cc(C)nc(-c3ccccn3)n2)cc1 | – | – | – | – | EC50 [4]: 21.1 µM (active); EC50 (Streptokinase A): > 150 µM (not active); EC50 (Streptococcus): 49.4 µM (active); AC50 (INS1): 4 µM (active)

SMILES | AC50 (Cytochrome P450 2C19; read-out: AC50) | EC50 [1] | EC50 [2] | EC50 (H4) | also measured
Cc1ccc(OCC(=O)NNC(=O)CCC(=O)Nc2ccc(C)cc2C)cc1 | – | – | – | – | AC50 (Cytochrome P450 2C19): inconclusive
COC(=O)[C@H](C)NC(=O)NCCC1=CCCCC1 | – | – | – | – | EC50 [3]: > 195 µM (not active)
Cc1ccccc1N1CCN(C(=O)c2ccccc2NC(=O)/C=C\C(=O)O)CC1 | 28.2 µM (inconclusive) | – | – | – | –
Cc1nnc2n1N=CC=C(c1ccccc1)S2 | – | 0.547 µM (active) | 7.89 µM (active) | > 120 µM (not active) | –
CCOC(=O)c1cnc(-n2nc(C)cc2C)nc1Nc1ccc(N(C)C)cc1 | – | – | – | – | EC50 [5]: 1.12 µM (active); EC50 [6]: > 30 µM (not active); AC50 (INS1): 4.04 µM (active)
CC(C)C[C@H]1CN=C(Nc2ccccc2)N1CCc1ccc(F)cc1 | – | – | – | – | AC50 (INS1): 64.4 µM (active)
CCn1c(O)c(C(c2ccccn2)c2c(O)n(CC)c(=S)[nH]c2=O)c(=O)[nH]c1=S | 0.00562 µM (inconclusive) | – | – | – | AC50 (Cytochrome P450 2C9): 31.6 µM (inconclusive)
COc1ccc2c(c1O)-c1cccc3c1[C@H](C2)N(C)CC3 | 7.94 µM (inconclusive) | – | – | – | AC50 (Cytochrome P450 2D6): 31.6 µM (inconclusive); AC50 (Cytochrome P450 3A4): 15.8 µM (inconclusive)
Cc1cccc(OCCOC(=O)c2c(-c3ccccc3)noc2C)c1 | – | > 120 µM (not active) | 62 µM (active) | > 120 µM (not active) | –
Cc1cc(C)c2c3c(sc2n1)C1(CCSCC1)C(C#N)=C(N)O3 | – | 20.3 µM (active) | 14.5 µM (inconclusive) | 14.7 µM (active) | EC50 [5]: 0.118 µM (active); EC50 [6]: > 30 µM (not active)
COc1ccc(C2N(c3ccccn3)C(=O)C3CCCN32)c(OC)c1 (stereo unspecified) | 28.2 µM (inconclusive) | – | – | – | AC50 (Cytochrome P450 1A2): 0.00631 µM (inconclusive); AC50 (Cytochrome P450 3A4): 22.4 µM (inconclusive)
Cc1nc2ccccc2c(=O)n1/N=C1\C(=O)N(C)c2ccccc21 | – | > 120 µM (not active) | 12.6 µM (active) | > 120 µM (not active) | –
CC(C)CC(=O)O/N=C1\C(=O)N(c2ccccc2)c2ccccc21 | 5.62 µM (inconclusive) | – | – | – | AC50 (Cytochrome P450 1A2): 3.55 µM (inconclusive); AC50 (Cytochrome P450 2C9): 6.31 µM (inconclusive)
COC(=O)c1ccc(COc2ccccc2/C=N/NS(=O)(=O)c2ccc(C)cc2)cc1 | – | > 120 µM (not active) | > 120 µM (not active) | > 120 µM (not active) | –
O=C1NC2(CCCCC2)C(=O)N1/N=C/c1ccccc1Br | – | > 120 µM (not active) | 24.6 µM (active) | 16.1 µM (active) | –
CCN1/C(=N/c2ccc(Cl)cc2)SC/C1=C\C(=O)OC | – | 17.1 µM (active) | 26.6 µM (active) | 23.7 µM (active) | –
O=C(O)[C@H]1CN[C@H](C(=O)O)C1 | – | – | – | – | AC50 (Cytochrome P450 2C19): inconclusive; AC50 (Cytochrome P450 2D6): 39.8 µM (inconclusive); AC50 (Cytochrome P450 1A2): 31.6 µM (inconclusive)
